# Source: patent US12522596B2, “Compounds as GLP-1R agonists” (Terns Pharmaceuticals, Inc., priority 2021, dated 2026)
# Where two headings read alike, the source gives them in different places.
# Assay: Pharmacokinetics in hGLP-1R mice after oral dosing
# Assay type: in vivo, male C57BL/6J hGLP-1R mouse
# Conditions: male, C57BL/6J hGLP-1R, mouse, plasma, po; for concentration at 120 min: hGLP-1R mouse plasma collected at 120 min (IPGTT cohort); for MRT inf: read-out: MRT0-inf; for MRT last: read-out: MRT0-last; for AUC0-inf: read-out: AUC0-inf
# Description: IPGTT (120 min)—PK bleeding: 40 μL blood samples (all treatment groups) were collected from mice under the jaw at IPGTT-120 min after blood glucose measurement into pre-chilled EDTA-2K tubes. Blood samples were processed for plasma by centrifugation at 4° C., 3200×g for 10 min. 15 μL plasma was stored at −80° C. for PK analysis. From 4 mice in Group 7 of the PD cohort, whole brain was collected after blood is harvested at 120 min post dose, rinsed with saline and patted dry and placed into a pre-weighed tube and stored at −80° C. collected for PK analysis.
# PK bleeding group design is described in Table 9.
# PK bleeding: 30 μL blood was collected at 0.25, 0.5, 1, 2, 4, and 8 h. Blood samples were processed for plasma by centrifugation at 4° C., 3200×g for 10 min. 12 μL plasma was collected at −80° C. for further analysis. From 3 mice in Group 7 of the PK cohort, whole brain was collected after blood is harvested at 8 hr post dose, rinsed with saline and patted dry and placed into a pre-weighed tube and stored at −80° C. collected for PK analysis.
# For plasma: An aliquot of 3 μL sample was protein precipitated with 60 μL internal standard (100 ng/mL Labetalol & 100 ng/ml Dexamethasone & 100 ng/ml Tolbutamide & 100 ng/mL Verapamil & 100 ng/ml Glyburide & 100 ng/ml Celecoxib in ACN) and then the mixture was vortex-mixed for 10 min at 800 rpm and centrifuged for 15 min at 3220×g, 4° C.
# The linear/log trapezoidal rule was applied in obtaining the PK parameters. Individual plasma concentration values that were below the lower limit of quantitation (LOQ) were excluded from the PK parameter calculation. The nominal dose levels and nominal sampling times were used in the calculation of all pharmacokinetic parameters.
# [1] = 0.3 mg/kg, hGLP-1R mouse plasma, PO 0.3 mg/kg, read-out: Mean Concentration
# [2] = 0.3 mg/kg, hGLP-1R mouse plasma, PO 0.3 mg/kg, individual animals, read-out: Concentration
# [3] = 0.3 mg/kg, hGLP-1R mouse plasma, PO 0.3 mg/kg, individual mice
# [4] = 0.3 mg/kg, hGLP-1R mouse plasma, PO 0.3 mg/kg, mean
# [5] = 1 mg/kg, hGLP-1R mouse plasma, PO 1 mg/kg, individual animals, read-out: Concentration
# [6] = 1 mg/kg, hGLP-1R mouse plasma, PO 1 mg/kg, read-out: Mean Concentration
# [7] = 1 mg/kg, hGLP-1R mouse plasma, PO 1 mg/kg, individual mice
# [8] = 1 mg/kg, hGLP-1R mouse plasma, PO 1 mg/kg, mean
smiles,measurement,setting,value
"N#Cc1ccc(COc2cccc(C3CCN(Cc4nc5ccc(C(=O)O)cc5n4C[C@@H]4CCO4)CC3)n2)c(F)c1 [Reference Compound A, reference compound]",concentration at 120 min,"0.3 mg/kg, PO 0.3 mg/kg, read-out: Mean Concentration",7.16 ng/mL
same,concentration at 0.25 h,[1],24.9 ng/mL
same,concentration at 0.5 h,[2],19.6 ng/mL
same,concentration at 0.5 h,[1],17.3 ng/mL
same,concentration at 1 h,[1],16 ng/mL
same,concentration at 2 h,"0.3 mg/kg, hGLP-1R mouse plasma, PO 0.3 mg/kg",3.37 ng/mL
same,concentration at 4 h,[2],< 1 ng/mL
same,MRT inf,[3],56.6 min
same,MRT last,[3],48.2 min
same,half-life,"0.3 mg/kg, hGLP-1R mouse plasma, PO 0.3 mg/kg, individual mice, read-out: T1/2 (converted)",28.9 min
same,Tmax,"0.3 mg/kg, hGLP-1R mouse plasma, PO 0.3 mg/kg, individual mice, read-out: Tmax",30 min
same,AUC0-inf,[4],27.6 ng·h/mL
same,AUC(0-t),"0.3 mg/kg, hGLP-1R mouse plasma, PO 0.3 mg/kg, mean, read-out: AUC0-last",24.5 ng·h/mL
same,Cmax,"0.3 mg/kg, hGLP-1R mouse plasma, PO 0.3 mg/kg, mean, read-out: Cmax",27 ng/mL
same,MRT inf,[4],62.4 min
same,MRT last,[4],49.2 min
same,half-life,"0.3 mg/kg, hGLP-1R mouse plasma, PO 0.3 mg/kg, mean, read-out: T1/2 (converted)",36.2 min
same,Tmax,"0.3 mg/kg, hGLP-1R mouse plasma, PO 0.3 mg/kg, mean, read-out: Tmax",25 min
same,AUC(0-t),"1 mg/kg, hGLP-1R mice, total, PO 1.0 mg/kg, read-out: AUClast Mean",85.5 ng·h/mL
same,Cmax,"1 mg/kg, hGLP-1R mice, total, PO 1.0 mg/kg, read-out: Cmax Mean",49.7 ng/mL
same,Tmax,"1 mg/kg, hGLP-1R mice, total, PO 1.0 mg/kg, read-out: Tmax Median",30 min
same,concentration at 120 min,"1 mg/kg, PO 1 mg/kg, read-out: Mean Concentration",21.4 ng/mL
same,concentration at 0.25 h,[5],43.5 ng/mL
same,concentration at 0.25 h,[6],35.7 ng/mL
same,concentration at 0.5 h,[5],62.8 ng/mL
same,concentration at 0.5 h,[6],48.1 ng/mL
same,concentration at 1 h,[6],39.5 ng/mL
same,concentration at 2 h,"1 mg/kg, hGLP-1R mouse plasma, PO 1 mg/kg",14.5 ng/mL
same,concentration at 4 h,[5],3.59 ng/mL
same,concentration at 4 h,[6],3.4 ng/mL
same,concentration at 8 h,"1 mg/kg, hGLP-1R mouse plasma, PO 1 mg/kg, 8 h, read-out: Mean Concentration",2.42 ng/mL
same,AUC0-inf,[7],105 ng·h/mL
same,AUC(0-t),"1 mg/kg, hGLP-1R mouse plasma, PO 1 mg/kg, individual mice, read-out: AUC0-last",101 ng·h/mL
same,Cmax,"1 mg/kg, hGLP-1R mouse plasma, PO 1 mg/kg, individual mice, read-out: Cmax",62.8 ng/mL
same,MRT last,[7],78 min
same,Tmax,"1 mg/kg, hGLP-1R mouse plasma, PO 1 mg/kg, individual mice, read-out: Tmax",30 min
same,AUC0-inf,[8],93.8 ng·h/mL
same,AUC(0-t),"1 mg/kg, hGLP-1R mouse plasma, PO 1 mg/kg, mean, read-out: AUC0-last",85.5 ng·h/mL
same,Cmax,"1 mg/kg, hGLP-1R mouse plasma, PO 1 mg/kg, mean, read-out: Cmax",49.7 ng/mL
same,MRT inf,[8],161 min
same,MRT last,[8],109 min
same,half-life,"1 mg/kg, hGLP-1R mouse plasma, PO 1 mg/kg, mean, read-out: T1/2 (converted)",119 min
same,Tmax,"1 mg/kg, hGLP-1R mouse plasma, PO 1 mg/kg, mean, read-out: Tmax",40 min
same,Tmax,"3 mg/kg, hGLP-1R mice, oral, across the doses tested (0.3, 1 and, for Compound 2, 3 mg/kg), read-out: median Tmax",30 min
same,half-life,"hGLP-1R male mice, oral, across doses, read-out: terminal T1/2",< 120 min
